Values belong to the compound of their own block, whether it stands above or below them.
Columns and labels:
[1] = Bioavailability evaluation (pharmacokinetics after oral capsule administration); type: in vivo; conditions: fasted male beagle dogs, oral capsules, 10 mg/kg; for AUC(0-inf) / AUC(0-t) / Cmax / Tmax: dog, plasma
Method: Bioavailability was evaluated with regard to azetidin-1-yl{8-[(2,6-dimethylbenzyl)amino]-2,3-dimethylimidazo[1,2-a]pyridin-6-yl}methanone citrate according to Example 4(1) of the present invention and azetidin-1-yl{8-[(2,6-dimethylbenzyl)amino]-2,3-dimethylimidazo[1,2-a]pyridin-6-yl}methanone obtained according to Preparation Example 1 as an comparative example. Specific pharmacokinetic experiments and evaluation methods are as follows.
Fasted male beagle dogs were orally administered with capsules at a dose of 10 mg/kg, and bled at 0.08, 0.25, 0.5, 1, 3, 5, 8, and 24 hours after administration. Blood collected in an amount of 3 ml each from the jugular vein was centrifuged to separate plasma, and stored frozen in a cryogenic freezer before analysis.
Plasma pretreatment was performed by a protein precipitation method. 300 ul of acetonitrile containing an internal standard (200 ng/ml of carbamazepine) was added to 100 ul of a plasma sample and mixed. After sufficiently mixing, the resulting mixture was centrifuged at 12,000 rpm for 10 minutes, after which the supernatant was transferred to an assay vial and injected into a LC-MS/MS to analyze a blood concentration of the compound.
Parameters of time to maximum plasma concentration (Tmax), maximum plasma concentration (Cmax), and area under the plasma-concentration time curve (AUC0-t, AUC0-inf) were obtained using PK Solution.

[2] = Photostability evaluation (discoloration observed with naked eyes); type: physicochemical
Method: It is determined to be suitable only when the white to yellowish off-white powder form is maintained as a solid property.

[3] = Short-term storage stability (heat/moisture), purity by HPLC; type: physicochemical
Method: Purity of azetidin-1-yl{8-[(2,6-dimethylbenzyl)amino]-2,3-dimethylimidazo[1,2-a]pyridin-6-yl}methanone citrate according to Example 4(1) of the present invention was measured, and then the purity was measured after being left at 60°C for four days. Purity measurements were performed by HPLC. In addition, with regard to azetidin-1-yl{8-[(2,6-dimethylbenzyl)amino]-2,3-dimethylimidazo[1,2-a]pyridin-6-yl}methanone citrate according to Example 4(1) of the present invention, the purity was measured after being left for two days under the condition of 75 to 90% humidity (RH).

[4] = Long-term storage stability (25±2°C, 60±5% RH); type: physicochemical; conditions: for Moisture: criteria 1.0% or less; for Purity: criteria 99.0% or more; for Property: criteria: White to yellowish off-white powder
Method: (§1) An X-ray powder diffraction pattern was obtained through a solid phase detector over a range of 2° to 40° of a diffraction angle (2θ) with a 0.02° step size by using D8 Focus (Bruker ASX). The moisture content of the obtained sample was measured with an 870KF Titrino Plus (Metrohm) Karl-Fischer moisture meter. Immediately after preparing azetidin-1-yl{8-[(2,6-dimethylbenzyl)amino]-2,3-dimethylimidazo[1,2-a]pyridin-6-yl}methanone citrate according to Example 4(1) of the present invention, properties were confirmed with naked eyes, and the moisture content, purity, and XRD were measured, respectively. Subsequently, the same was primarily sealed in a polyethylene bag and then secondarily sealed in an aluminum bag, and then the properties were confirmed with naked eyes and the moisture content, purity, and XRD were also measured at 12, 24 and 36 months after being stored under the condition of 25±2°C and 60±5% RH.

[5] = Thermal and moisture stability under accelerated conditions (40±2°C, 75±5% RH); type: physicochemical; conditions: for Moisture: criteria 1.0% or less; for Purity: criteria 99.0% or more; for Property: criteria: White to yellowish off-white powder
Method: as §1, with “at one” for “at 12, 24”, “and six” for “and 36”, “under an accelerated” for “under the”, “of 40±2°C” for “of 25±2°C”, “and 75±5%” for “and 60±5%”

[6] = Immediately after preparation (Initial value)

AUC(0-inf) [1]: 15200 ng·h/mL
AUC(0-t) [1]: 15000 ng·h/mL
Cmax [1]: 3030 ng/mL
Tmax [1]: 1 h
AUC improvement relative to Comparative Example (compound I free base) [1]: five times or more
Cmax increase relative to Comparative Example (compound I free base) [1]: ≥ 11 times
color ([2]; Initial value): White
color ([2]; UV 200 watt (35 W), 25°C, humidity 60%): Off-white
color ([2]; Visible 1200k lux (35k lux), 25°C, humidity 60%): Slightly off-white
Purity (%) ([3]; Humidity 75~90 %, Day 2): 99.976%
Purity (%) ([3]; Initial value): 99.955%
Purity (%) ([3]; Temperature 60°C, Day 4): 99.974%
XRD (Comparison with initial value) ([4]; 12 months, 25±2°C, 60±5% RH): Same
Moisture ([4]; 12 months, 25±2°C, 60±5% RH): 0.52%
Purity ([4]; 12 months, 25±2°C, 60±5% RH): 99.96%
Property ([4]; 12 months, 25±2°C, 60±5% RH): Suitable
XRD (Comparison with initial value) ([4]; 24 months, 25±2°C, 60±5% RH): Same
Moisture ([4]; 24 months, 25±2°C, 60±5% RH): 0.45%
Purity ([4]; 24 months, 25±2°C, 60±5% RH): 99.97%
Property ([4]; 24 months, 25±2°C, 60±5% RH): Suitable
XRD (Comparison with initial value) ([4]; 36 months, 25±2°C, 60±5% RH): Same
Moisture ([4]; 36 months, 25±2°C, 60±5% RH): 0.60%
Purity ([4]; 36 months, 25±2°C, 60±5% RH): 99.96%
Property ([4]; 36 months, 25±2°C, 60±5% RH): Suitable
XRD (Comparison with initial value) [4, 6]: Same
Moisture [4, 6]: 0.74%
Purity [4, 6]: 99.96%
Property [4, 6]: Suitable
XRD (Comparison with initial value) ([5]; 1 month, 40±2°C, 75±5% RH): Same
Moisture ([5]; 1 month, 40±2°C, 75±5% RH): 0.75%
Purity ([5]; 1 month, 40±2°C, 75±5% RH): 99.97%
Property ([5]; 1 month, 40±2°C, 75±5% RH): Suitable
XRD (Comparison with initial value) ([5]; 6 months, 40±2°C, 75±5% RH): Same
Moisture ([5]; 6 months, 40±2°C, 75±5% RH): 0.15%
Purity ([5]; 6 months, 40±2°C, 75±5% RH): 99.96%
Property ([5]; 6 months, 40±2°C, 75±5% RH): Suitable
XRD (Comparison with initial value) [5, 6]: Same
Moisture [5, 6]: 0.74%
Purity [5, 6]: 99.96%
Property [5, 6]: Suitable
SMILES: Cc1cccc(C)c1CNc1cc(C(=O)N2CCC2)cn2c(C)c(C)nc12.O=C(O)CC(O)(CC(=O)O)C(=O)O [Citrate of Compound I, azetidin-1-yl{8-[(2,6-dimethylbenzyl)amino]-2,3-dimethylimidazo[1,2-a]pyridin-6-yl}methanone citrate]

AUC(0-inf) [1]: 2820 ng·h/mL
AUC(0-t) [1]: 2630 ng·h/mL
Cmax [1]: 262 ng/mL
Tmax [1]: 5 h
SMILES: Cc1cccc(C)c1CNc1cc(C(=O)N2CCC2)cn2c(C)c(C)nc12 [Compound I (free base), Azetidin-1-yl{8-[(2,6-dimethylbenzyl)amino]-2,3-dimethylimidazo[1,2-a]pyridin-6-yl}methanone]
